Measurements reported in ChEMBL document CHEMBL1201862, “PubChem BioAssay data set” (2004).
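In this assay, cells in 96-well plates receive the compound at five concentrations for 48 hours. Endpoints are linearly interpolated between the surrounding concentrations. GI50 is the concentration that inhibits growth by half.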 Activity calls are given as the source filed them. Rule as the data show it: active = GI50 up to about 1.1 µM and inactive = higher.

Tests used:
Experiment in all cases: NCI anticancer screen, dose series, 48 h
MCF7 = system: MCF7
Hs-578T = system: Hs-578T
OVCAR-5 = system: OVCAR-5
SF-539 = system: SF-539
NCI-H522 = system: NCI-H522
UO-31 = system: UO-31
M14 = system: M14
SNB-19 = system: SNB-19
UACC-257 = system: UACC-257
NCI-H460 = system: NCI-H460
OVCAR-8 = system: OVCAR-8
T47D = system: T47D
OVCAR-3 = system: OVCAR-3
HT-29 = system: HT-29
OVCAR-4 = system: OVCAR-4
MOLT-4 = system: MOLT-4
RXF 393 = system: RXF 393
BT-549 = system: BT-549
MDA-N = system: MDA-N
NCI-H226 = system: NCI-H226

Row | Structure (SMILES) | GI50 (MCF7) | GI50 (Hs-578T) | GI50 (OVCAR-5) | GI50 (SF-539) | GI50 (NCI-H522) | GI50 (UO-31) | GI50 (M14) | GI50 (SNB-19) | GI50 (UACC-257) | GI50 (NCI-H460) | GI50 (OVCAR-8) | GI50 (T47D) | GI50 (OVCAR-3) | GI50 (HT-29) | GI50 (OVCAR-4) | GI50 (MOLT-4) | GI50 (RXF 393) | GI50 (BT-549) | GI50 (MDA-N) | GI50 (NCI-H226)
1 | COC(=O)C1(Cc2ccc3c(c2)CCC3)Cc2cc3c(cc2C1=O)CCC3 (stereo not given) | 21.4 µM (inactive) | 33 µM (inactive) | > 46.5 µM (inactive) | > 46.5 µM (inactive) | 8.85 µM (inactive) | 16 µM (inactive) | 20.8 µM (inactive) | 31.2 µM (inactive) | 16.4 µM (inactive) | 15.3 µM (inactive) | 27.2 µM (inactive) | 10.8 µM (inactive) | 44.6 µM (inactive) | 20.3 µM (inactive) | 18.7 µM (inactive) | 16.5 µM (inactive) | 29.4 µM (inactive) | 7.96 µM (inactive) | 13 µM (inactive) | 39.2 µM (inactive)
2 | CC1=NN2C(=N)/C(=C/c3ccc(F)cc3)C(=O)N=C2S1 | > 100 µM (inactive) | > 100 µM (inactive) | > 100 µM (inactive) | > 100 µM (inactive) | > 100 µM (inactive) | > 100 µM (inactive) | > 100 µM (inactive) | > 100 µM (inactive) | > 100 µM (inactive) | > 100 µM (inactive) | > 100 µM (inactive) | > 100 µM (inactive) | > 100 µM (inactive) | > 100 µM (inactive) | > 100 µM (inactive) | > 100 µM (inactive) | > 100 µM (inactive) | > 100 µM (inactive) | > 100 µM (inactive) | > 100 µM (inactive)
3 | COC(=O)[C@@H](NS(=O)(=O)CC12CCC(CC1)C2(C)C)C(C)(C)C | > 100 µM (inactive) | > 100 µM (inactive) | > 100 µM (inactive) | > 100 µM (inactive) | > 100 µM (inactive) | > 100 µM (inactive) | > 100 µM (inactive) | > 100 µM (inactive) | > 100 µM (inactive) | > 100 µM (inactive) | > 100 µM (inactive) | > 100 µM (inactive) | > 100 µM (inactive) | > 100 µM (inactive) | > 100 µM (inactive) | 4.85 µM (inactive) | 44.4 µM (inactive) | > 100 µM (inactive) | > 100 µM (inactive) | > 100 µM (inactive)
4 | C=C[C@H]1CN2CCc3c([nH]c4c([C@@H]5CCCN5C)c(O)ccc34)[C@@H]2C[C@@H]1C[C@H]1c2[nH]c3ccccc3c2CCN1C | 1.96 µM (inactive) | 1.67 µM (inactive) | 1.79 µM (inactive) | 1.64 µM (inactive) | 1.85 µM (inactive) | 1.63 µM (inactive) | 1.09 µM (active) | 1.64 µM (inactive) | 1.91 µM (inactive) | 1.39 µM (inactive) | 1.4 µM (inactive) | 1.95 µM (inactive) | 1.64 µM (inactive) | 1.28 µM (inactive) | 1.71 µM (inactive) | 0.692 µM (active) | 0.274 µM (active) | 1.47 µM (inactive) | 1.67 µM (inactive) | 2.05 µM (inactive)
5 | NC(Cc1ccnnc1)C(=O)O (stereo not given) | > 100 µM (inactive) | > 100 µM (inactive) | > 100 µM (inactive) | > 100 µM (inactive) | > 100 µM (inactive) | > 100 µM (inactive) | > 100 µM (inactive) | > 100 µM (inactive) | > 100 µM (inactive) | > 100 µM (inactive) | > 100 µM (inactive) | > 100 µM (inactive) | > 100 µM (inactive) | > 100 µM (inactive) | > 100 µM (inactive) | > 100 µM (inactive) | > 100 µM (inactive) | > 100 µM (inactive) | > 100 µM (inactive) | > 100 µM (inactive)
6 | CCOc1cc2c(cc1O)CC[C@@H]1[C@@H]2CC[C@]2(C)C(N)CC[C@@H]12 (stereo not given in full) | 3.37 µM (inactive) | 3.67 µM (inactive) | 5.86 µM (inactive) | 2.36 µM (inactive) | 3.45 µM (inactive) | 3.54 µM (inactive) | 4.05 µM (inactive) | 4.83 µM (inactive) | 3.44 µM (inactive) | 2.91 µM (inactive) | 2.71 µM (inactive) | 8.53 µM (inactive) | 0.811 µM (active) | 2.44 µM (inactive) | 19.3 µM (inactive) | 5.93 µM (inactive) | 1.21 µM (inactive) | 11.2 µM (inactive) | 1.44 µM (inactive) | 2.77 µM (inactive)
7 | C[C@@H](C[C@H]1OC(C)(C)O[C@@H]1C(C)(C)O)[C@H]1CC=C2[C@]3(C)[C@H](O)C[C@H]4C(C)(C)[C@H](O)CC[C@]4(C)[C@H]3CC[C@]21C | 2.12 µM (inactive) | 7.33 µM (inactive) | 8.69 µM (inactive) | 11.9 µM (inactive) | 8.24 µM (inactive) | 8.93 µM (inactive) | 9.29 µM (inactive) | 10.7 µM (inactive) | 8.81 µM (inactive) | 6.44 µM (inactive) | 11.6 µM (inactive) | 7.73 µM (inactive) | 7.91 µM (inactive) | 2.9 µM (inactive) | 8.51 µM (inactive) | 4.52 µM (inactive) | 6.44 µM (inactive) | 11.4 µM (inactive) | 8.85 µM (inactive) | 7.62 µM (inactive)
8 | Nc1nc(Cl)c(C=O)c(NCC2(CO)CC(CCc3ccccc3)C2)n1 (stereo not given) | 9.16 µM (inactive) | 22.9 µM (inactive) | 15.8 µM (inactive) | 12.4 µM (inactive) | 1.71 µM (inactive) | 1.48 µM (inactive) | 2.54 µM (inactive) | 13.7 µM (inactive) | 3.08 µM (inactive) | 16.7 µM (inactive) | 2.07 µM (inactive) | 1.34 µM (inactive) | 11.3 µM (inactive) | 12.4 µM (inactive) | 2 µM (inactive) | 2.62 µM (inactive) | 14.2 µM (inactive) | 12.1 µM (inactive) | 6.59 µM (inactive) | 12.6 µM (inactive)
9 | CCCCCCCCCCCC[C@@H](O)[C@H]1CC[C@H]([C@H](O)CC[C@H](O)[C@@H]2CC[C@@H](CCCCCCCC3=C[C@H](C)OC3=O)O2)O1 | > 50 µM (inactive) | 3.94 µM (inactive) | > 50 µM (inactive) | > 50 µM (inactive) | 46.8 µM (inactive) | > 50 µM (inactive) | > 50 µM (inactive) | > 50 µM (inactive) | > 14.9 µM (inactive) | 2.54 µM (inactive) | > 50 µM (inactive) | > 50 µM (inactive) | > 50 µM (inactive) | > 50 µM (inactive) | > 50 µM (inactive) | > 15.2 µM (inactive) | > 50 µM (inactive) | > 50 µM (inactive) | 6.47 µM (inactive) | > 50 µM (inactive)
